Results as given in patent publication US20200131669A1, “CYCLIC PEPTIDE COMPOUND HAVING HIGH MEMBRANE PERMEABILITY, AND LIBRARY CONTAINING SAME” (Chugai Seiyaku Kabushiki Kaisha, priority 2017, published 2020).
Starred links: 1 amine or outer side, 2 acyl side, 3 side chain; linkers in the order of their positions; H or OH if unused. Positions of bridges follow the written chain, without caps; N, C: chain ends. Non-standard residues stand in square brackets, D forms with d. Residues, ends and D or L forms follow the SMILES beside them. ξ: configuration not given here. *: point of attachment. Phe(4-CF3) = N[C@@H](Cc1ccc(C(F)(F)F)cc1)C(=O)O; Phe(4-CHF2) = N[C@@H](Cc1ccc(C(F)F)cc1)C(=O)O; NMePhe(3-Cl) = CN[C@@H](Cc1cccc(Cl)c1)C(=O)O; X16 = O=C(C1CCCCC1)[C@H](CC(=O)[*:2])N[*:1]; hPhe(3-Cl) = N[C@@H](CCc1cccc(Cl)c1)C(=O)O; hPhe(4-Cl) = N[C@@H](CCc1ccc(Cl)cc1)C(=O)O; NMehPhe = CN[C@@H](CCc1ccccc1)C(=O)O; Ethyl(2-morpholino) = C1CN(CC*)CCO1; Hyp = O=C(O)[C@@H]1C[C@@H](O)CN1; NMeF = CN[C@@H](Cc1ccccc1)C(=O)O; NMeGABA = CN(CCCC(=O)[*:2])[*:1]; NMeI = CC[C@H](C)[C@H](NC)C(=O)O; hPhe = N[C@@H](CCc1ccccc1)C(=O)O; 4Pal = N[C@@H](Cc1ccncc1)C(=O)O; ξThr(3R) = C[C@@H](O)C(N)C(=O)O; Butyl(3-Me,3-OH) = CC(C)(O)CC*; NMeD = CN[C@@H](CC(=O)O)C(=O)O; CH2CH(OH)CF3 = OC(C*)C(F)(F)F; NMeL = CN[C@@H](CC(C)C)C(=O)O; dNMeL = CN[C@H](CC(C)C)C(=O)O; Propyl(2R-OH) = C[C@@H](O)C*; NMeV = CN[C@H](C(=O)O)C(C)C; NMeAbu = CC[C@H](NC)C(=O)O; NMeA = CN[C@@H](C)C(=O)O; Piperidide = C1CCN(*)CC1; dNMeA = CN[C@H](C)C(=O)O; Me2NCH2CH2 = CN(C)CC*; NBuGly = CCCCNCC(=O)O; Sar = CNCC(=O)O; tBu = CC(C)(C)*; CHF2 = FC(F)*

Test system: Caco-2 cells
Assay: Caco-2 membrane permeability, improved method as used in the following Examples (96-well, 20 to 24 h preincubation)
Assay type: in vitro ADME
Details: human, Caco-2, 180 min
Procedure, shortened: (§1)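 Papp (cm/sec) was derived from LC/MS of basal samples collected 180 min after apical dosing in FaSSIF/HBSS pH 6.0 with 1% DMSO, against a basal HBSS pH 7.4 receiver containing 4% BSA. Three-week Caco-2 cultures were first preincubated with compound in DMEM+FaSSIF at 37 °C for 20–24 h.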

Row | Compound | Caco-2
1 | CC(C)C[C@H]1C(=O)N[C@H](C(=O)N2CCCCC2)CC(=O)N(C)[C@@H](C)C(=O)N[C@@H](CCc2ccc(Cl)cc2)C(=O)N(C)[C@@H](CC(C)C)C(=O)N(C)[C@@H](CC(C)C)C(=O)N[C@@H](C)C(=O)N(C)[C@@H](Cc2ccccc2)C(=O)N(C)[C@@H](C(C)C)C(=O)N[C@@H]([C@@H](C)O)C(=O)N(C)CC(=O)N1C [pd361] ([NMeA][hPhe(4-Cl)][NMeL][NMeL]A[NMeF][NMeV]T[Sar][NMeL]D-Piperidide; lactam N-11) | 1.1e-06 cm/s
2 | CCCCN1CC(=O)N(C)[C@@H](Cc2ccccc2)C(=O)N(C)[C@@H](CC(C)C)C(=O)N[C@@H](CC(C)C)C(=O)N(C)[C@@H](CC(C)C)C(=O)N[C@H](C(=O)N2CCCCC2)CC(=O)N(C)CC(=O)N(C)[C@@H](CC)C(=O)N[C@@H](C(C)C)C(=O)N(C)[C@@H](CC(C)C)C(=O)N[C@@H](COCCN2CCOCC2)C1=O [pd486] ([Sar][NMeAbu]V[NMeL]S(Ethyl(2-morpholino))[NBuGly][NMeF][NMeL]L[NMeL]D-Piperidide; lactam N-11) | 1.1e-06 cm/s
3 | CC(C)C[C@H]1C(=O)N[C@@H](COC(C)(C)C)C(=O)N(C)[C@@H](Cc2ccccc2)C(=O)N(C)[C@@H](CC(C)C)C(=O)N[C@H](C(=O)N2CCCCC2)CC(=O)N[C@H](C(C)C)C(=O)N(C)[C@@H](C(C)C)C(=O)N[C@@H](Cc2ccc(OC(F)F)cc2)C(=O)N(C)[C@@H](CC(C)C)C(=O)N[C@@H]([C@@H](C)O)C(=O)N(C)CC(=O)N1C [pd476] ([dV][NMeV]Y(CHF2)[NMeL]T[Sar][NMeL]S(tBu)[NMeF][NMeL]D-Piperidide; lactam N-11) | 1.1e-06 cm/s
4 | CC[C@H](C)[C@H]1C(=O)N[C@@H]([C@@H](C)O)C(=O)N(C)CC(=O)N(C)[C@@H](CC(C)C)C(=O)N[C@H](C(=O)N2CCCCC2)CC(=O)N(C)[C@@H](C(C)C)C(=O)N[C@@H](COC[C@@H](C)O)C(=O)N(C)[C@H](CC(C)C)C(=O)N(C)[C@@H](Cc2cccc(Cl)c2)C(=O)N[C@@H](CC(C)C)C(=O)N(C)[C@@H](Cc2ccccc2)C(=O)N1C [pd491] ([NMeV]S(Propyl(2R-OH))[dNMeL][NMePhe(3-Cl)]L[NMeF][NMeI]T[Sar][NMeL]D-Piperidide; lactam N-11) | 1.1e-06 cm/s
5 | CC(C)C[C@H]1C(=O)N[C@@H](COC(C)(C)C)C(=O)N(C)[C@@H](Cc2ccccc2)C(=O)N(C)[C@@H](CC(C)C)C(=O)N[C@H](C(=O)N2CCCCC2)CC(=O)N[C@H](C(C)C)C(=O)N(C)[C@@H](C(C)C)C(=O)N[C@@H](Cc2ccc(C(F)F)cc2)C(=O)N(C)[C@@H](CC(C)C)C(=O)N[C@@H]([C@@H](C)O)C(=O)N(C)CC(=O)N1C [pd472] ([dV][NMeV][Phe(4-CHF2)][NMeL]T[Sar][NMeL]S(tBu)[NMeF][NMeL]D-Piperidide; lactam N-11) | 1.1e-06 cm/s
6 | CC(C)C[C@H]1C(=O)N[C@@H](COC(C)(C)C)C(=O)N(C)[C@@H](Cc2ccccc2)C(=O)N(C)[C@@H](C(C)C)C(=O)N[C@H](C(=O)N2CCCCC2)CC(=O)N[C@H](C(C)C)C(=O)N(C)[C@@H](C)C(=O)N[C@@H](CCc2ccc(Cl)cc2)C(=O)N(C)[C@@H](CC(C)C)C(=O)N[C@@H]([C@@H](C)O)C(=O)N(C)CC(=O)N1C [pd359] ([dV][NMeA][hPhe(4-Cl)][NMeL]T[Sar][NMeL]S(tBu)[NMeF][NMeV]D-Piperidide; lactam N-11) | 1.1e-06 cm/s
7 | CC[C@H](C)[C@@H]1NC(=O)[C@H](Cc2ccccc2)N(C)C(=O)CN(C)C(=O)C[C@@H](C(=O)N2CCCCC2)NC(=O)[C@H](C(C)C)N(C)C(=O)[C@H](CCc2cccc(Cl)c2)NC(=O)[C@H](CC(C)C)N(C)C(=O)[C@H](CC(C)C)N(C)C(=O)CN(C)C(=O)[C@H]([C@@H](C)O)NC(=O)[C@H](CC(C)C)N(C)C1=O [pd358] ([Sar][NMeF]I[NMeL]T[Sar][NMeL][NMeL][hPhe(3-Cl)][NMeV]D-Piperidide; lactam N-11) | 1.1e-06 cm/s

Test system: not listed separately
Assay: as above
Assay type: in vitro ADME
Details: human, Caco-2, Caco-2
Procedure, shortened: as §1

Row | Compound | Papp A→B at 180 min
8 | CC(C)C[C@H]1C(=O)N[C@@H](COC(C)(C)C)C(=O)N(C)[C@@H](Cc2ccccc2)C(=O)N(C)[C@@H](CC(C)C)C(=O)N[C@H](C(=O)N2CCCCC2)CC(=O)N[C@H](C(C)C)C(=O)N(C)[C@@H](CC(C)C)C(=O)N[C@@H](CCc2ccccc2)C(=O)N(C)[C@@H](CC(C)C)C(=O)N[C@@H]([C@@H](C)O)C(=O)N(C)CC(=O)N1C [pd315] ([dV][NMeL][hPhe][NMeL]T[Sar][NMeL]S(tBu)[NMeF][NMeL]D-Piperidide; lactam N-11) | 1.7 ×10⁻⁶ cm/s
9 | CC(C)C[C@H]1C(=O)N[C@@H](Cc2ccc(OC(F)F)cc2)C(=O)N(C)[C@@H](CC(C)C)C(=O)N(C)[C@@H](Cc2ccccc2)C(=O)N[C@@H](COC(C)(C)C)C(=O)N(C)[C@@H](CC(C)C)C(=O)NC([C@@H](C)O)C(=O)N(C)[C@@H](C)C(=O)N(C)[C@@H](CC(C)C)C(=O)N[C@@H](C(=O)N2CCCCC2)CC(=O)N(C)CCCC(=O)N1C (stereo partly drawn) [pd478] ([NMeGABA][NMeL]Y(CHF2)[NMeL][NMeF]S(tBu)[NMeL][ξThr(3R)][NMeA][NMeL][dD]-Piperidide; lactam N-11) | 1.3 ×10⁻⁶ cm/s
10 | CC(C)C[C@@H]1NC(=O)[C@H](Cc2ccccc2)N(C)C(=O)[C@H](CC(C)C)N(C)C(=O)[C@H](COCCC(C)(C)O)NC(=O)[C@H](C)N(C)C(=O)C[C@@H](C(=O)N2CCCCC2)NC(=O)[C@H](CC(C)C)N(C)C(=O)CN(C)C(=O)[C@H]([C@@H](C)O)NC(=O)[C@H](CC(C)C)N(C)C(=O)[C@H](CCc2ccccc2)N(C)C1=O [pd436] ([NMeA]S(Butyl(3-Me,3-OH))[NMeL][NMeF]L[NMehPhe][NMeL]T[Sar][NMeL]D-Piperidide; lactam N-11) | 1.3 ×10⁻⁶ cm/s
11 | CCCCN1CC(=O)N(C)[C@@H](CC(C)C)C(=O)N[C@@H](COCCN(C)C)C(=O)N(C)[C@@H](Cc2ccccc2)C(=O)N(C)[C@@H](C(C)C)C(=O)N[C@H](C(=O)N2CCCCC2)CC(=O)N[C@H](CC(C)C)C(=O)N(C)[C@@H](Cc2ccccc2)C(=O)N[C@@H](CC(C)C)C(=O)N(C)[C@@H](CC(C)C)C(=O)N[C@@H]([C@@H](C)O)C1=O [pd51] ([dL][NMeF]L[NMeL]T[NBuGly][NMeL]S(Me2NCH2CH2)[NMeF][NMeV]D-Piperidide; lactam N-11) | 0.07 ×10⁻⁶ cm/s
12 | CC[C@H]1C(=O)N(C)[C@@H](Cc2ccccc2)C(=O)N[C@@H](CC(C)C)C(=O)N(C)[C@@H](Cc2ccccc2)C(=O)N(C)[C@@H](C(C)C)C(=O)N[C@@H](COCC(O)C(F)(F)F)C(=O)N(C)CC(=O)N(C)[C@@H](CC(C)C)C(=O)N[C@H](C(=O)N2CCCCC2)CC(=O)N(C)[C@@H](C)C(=O)N[C@@H](CC(C)C)C(=O)N1C (stereo partly drawn) [pd503] ([NMeA]L[NMeAbu][NMeF]L[NMeF][NMeV]S(CH2CH(OH)CF3)[Sar][NMeL]D-Piperidide; lactam N-11) | 2 ×10⁻⁶ cm/s
13 | CCO[C@@H]1C[C@H]2C(=O)N(C)[C@@H](CC(C)C)C(=O)N[C@@H]([C@@H](C)CC)C(=O)N(C)[C@@H](CC(C)C)C(=O)N[C@@H](CC(C)C)C(=O)N[C@H](C(=O)N3CCCCC3)CC(=O)N(C)[C@H](C)C(=O)N(C)[C@@H](CC(C)C)C(=O)N[C@@H](CC(C)C)C(=O)N(C)[C@@H](CC(C)C)C(=O)N[C@@H]([C@@H](C)O)C(=O)N2C1 [pd371] ([dNMeA][NMeL]L[NMeL]T[Hyp](Et)[NMeL]I[NMeL]LD-Piperidide; lactam N-11) | 3.4 ×10⁻⁶ cm/s

Same assay, conditions: human, Caco-2, Caco-2 (cm/sec)

Row | Compound | Papp A→B at 180 min
14 | CC(C)C[C@@H]1NC(=O)[C@H](Cc2ccccc2)N(C)C(=O)[C@H](C(C)C)N(C)C(=O)C[C@@H](C(=O)N2CCCCC2)NC(=O)[C@H]([C@@H](C)O)NC(=O)[C@H](Cc2ccccc2)N(C)C(=O)[C@H](Cc2ccccc2)NC(=O)[C@H](Cc2ccccc2)N(C)C(=O)CN(C)C(=O)[C@H](C)N(C)C(=O)[C@H](CC(C)C)N(C)C1=O [pd229] ([NMeV][NMeF]L[NMeL][NMeA][Sar][NMeF]F[NMeF]TD-Piperidide; lactam N-11) | 0.41 ×10⁻⁶ cm/s
15 | CC(C)C[C@@H]1NC(=O)[C@H](Cc2ccccc2)N(C)C(=O)[C@H](C)N(C)C(=O)C[C@@H](C(=O)N2CCCCC2)N(C)C(=O)[C@H](Cc2ccccc2)N(C)C(=O)[C@H](Cc2ccccc2)N(C)C(=O)[C@H](COC(C)(C)C)NC(=O)[C@H](C(C)C)N(C)C(=O)CN(C)C(=O)[C@H]([C@@H](C)O)NC(=O)[C@H](CC(C)C)N(C)C1=O [pd202] ([NMeA][NMeF]L[NMeL]T[Sar][NMeV]S(tBu)[NMeF][NMeF][NMeD]-Piperidide; lactam N-11) | 2.1 ×10⁻⁶ cm/s
16 | CC[C@H](C)[C@@H]1NC(=O)[C@H](CC(C)C)N(C)C(=O)CCCN(C)C(=O)C[C@@H](C(=O)C2CCCCC2)NC(=O)[C@H](CC(C)C)N(C)C(=O)[C@H](C)N(C)C(=O)[C@H](Cc2ccncc2)NC(=O)[C@H](CC(C)C)N(C)C(=O)[C@H](COC(C)(C)C)NC(=O)[C@H](Cc2cccc(Cl)c2)N(C)C(=O)[C@H](CC(C)C)N(C)C1=O [pd170] (cyclo([4Pal][NMeA][NMeL][X16][NMeGABA][NMeL]I[NMeL][NMePhe(3-Cl)]S(tBu)[NMeL])) | 1.6 ×10⁻⁶ cm/s
17 | CC(C)C[C@H]1C(=O)N[C@@H](COC(C)(C)C)C(=O)N(C)[C@@H](Cc2ccccc2)C(=O)N(C)[C@@H](C)C(=O)N[C@H](C(=O)N2CCCCC2)CC(=O)N[C@H](C(C)C)C(=O)N(C)[C@@H](CC(C)C)C(=O)N[C@@H](Cc2ccc(C(F)(F)F)cc2)C(=O)N(C)[C@@H](CC(C)C)C(=O)N[C@@H]([C@@H](C)O)C(=O)N(C)CC(=O)N1C [pd138] ([dV][NMeL][Phe(4-CF3)][NMeL]T[Sar][NMeL]S(tBu)[NMeF][NMeA]D-Piperidide; lactam N-11) | 2.6 ×10⁻⁶ cm/s
